Laboratory results reported in US10471028B2, “Small molecule efflux pump inhibitors” (UNIVERSITY OF ROCHESTER, priority 2014, dated 2019).

What was measured:
[1] = test system: A. baumannii strain 98-37-09; experiment: MEC determination: potentiation of minocycline toward serum grown A. baumannii; assay type: cell-based, Acinetobacter baumannii; details: for Log-reduction Colony Forming Units (ml^−1): 1×MEC of compound plus minocycline in serum, versus minocycline alone, plating; for MEC: lowest concentration inhibiting growth in 100% human serum with 0.5 μg ml^−1 minocycline, 48 hr
Method: The TimTec ActiProbe-25K diversity-set and Natural Product compound libraries (29,900 compounds total; TimTec, Newark, Del.) were initially screened for putative efflux pump inhibitors by identifying compounds that potentiated the antimicrobial property of a sub-inhibitory concentration of minocycline toward A. baumannii grown in human serum. To do so, A. baumannii strain 98-37-09 was grown for 16 hours in LB medium at 37° C. on a rotary shaker at 225 rpm. Approximately 1×10^5 CFU were then transferred to individual wells of a 96-well round-bottom plate (Corning Costar, Tewksbury, Mass.) containing 100 μL of human serum supplemented with of minocycline (0.5 μg mL^−1; 0.5× minimum inhibitory concentration in serum) and individual members of the Timtec ActiProbe or Natural product library (50 μM). Plates were then incubated at 37° C. for 48 hours. Growth was measured as a function of turbidity. Putative efflux pump inhibitors were identified as compounds that inhibited A. baumannii growth in human serum containing minocycline and were subsequently retested in triplicate, as indicated above. Untreated A. baumannii grown in serum supplemented with minocycline+/−PAβN served as positive and negative controls, respectively. […] Repeat testing in which well constituents were serial diluted and plated on LB agar plates validated that 85 compounds did indeed limit A. baumannii growth in serum supplemented with minocycline, reducing the number of viable colony forming units between 2-6 log cfu in comparison to minocycline alone treated cells.
The MEC was defined as the lowest concentration of test compound required to inhibit the growth of A. baumannii in serum in the presence of 0.5 μg ml^−1 minocycline. Plating confirmed that addition of 1×MEC of each compound elicited ≥1.9-log reduction in A. baumannii cells grown in serum supplemented with minocycline alone (see Table 1).

[2] = test system: A. baumannii strain 98-37-09; experiment: Cellular accumulation of minocycline (HPLC, triple-quadrupole MS); assay type: cell-based, Acinetobacter baumannii; details: human serum with 0.5 μg mL^−1 minocycline plus test compound (0.5×MEC, 1×MEC), 48 hours
Method: High pressure liquid chromatography and triple-quadrupole mass spectrometry were used to measure the A. baumannii intracellular levels of minocycline during growth in human serum in the absence and presence of each putative efflux pump inhibitor. […] Cultures were incubated for 48 hours with shaking, at which point an aliquot was removed, serially diluted, and plated to determine the number of viable CFU per mixture. The remainder of the cells were pelleted by centrifugation at 900×g at 4° C., washed twice in PBS, mechanically lysed with a FastPrep cell disrupter (MP Biomedicals, Santa Ana, Calif.) for 20 seconds at 5 m s^−1 and the cellular debris was pelleted via centrifugation at 900×g and 4° C. The amount of minocycline present within the supernatant of ruptured cells was measured. Briefly, doxycycline (0.5 μg mL^−1) was first added to each supernatant to serve as an internal control to account for sample-to-sample preparation variability. The supernatant was then combined with acetonitrile (ACN) at a 1:10 ratio and centrifuged at 16,000×g, at 4° C., to collect minocycline and doxycycline. […] residual liquid was evaporated in a speed vacuum for 2 hours at 8,000×g. To quantify the amount of antibiotics retained, sample materials were suspended in 50% acetonitrile, filtered through a 0.2 μm low protein binding hydrophilic membrane (Millipore, Billerica, Mass.) then separated on Shimadzu high performance liquid chromatography instrument (Fisher Scientific) using a BetaBasic C18 reverse phase column (Thermo Scientific). Separation was carried out with two mobile phase solutions consisting of solution (A) water with 0.1% formic acid and solution (B) 100% ACN. The gradient profile of the chromatography runs was as follows: from 0 to 0.1 min 8% solution B, ramp step wise (37% to 60% solution B) from 0.1 to 6.5 min then holding for one minute before ramping down from 60% to 10% from 7.5 to 8 min. This was followed a hold at 10% solution B for one minute. […] The column was equilibrated in 8% solution B at 40° C. and the flow rate was set to 0.2 mL min^−1. Mass spectrometry analysis of fractions was carried out using a Thermo TSQ Quantum Ultra triple quadrupole mass spectrometer (Fisher Scientific). Data were analyzed using Xcalibur software (Thermo Scientific); the following parameters were used to detect minocycline and the internal control doxycycline: 458.208 m/z→282.971 m/z (collision energy=43, tube lens=119) for minocycline and 445.144 m/z→266.900 m/z (collision energy=39, tube lens=127) for doxycycline. Analysis of the raw data was conducted by using the area under the curve calculations with the Genesis algorithm to determine the concentration in each sample. The difference between the peak intensity and the y intercept of pre-established minocycline and doxycycline standard curves was divided by the slope of the standard curve to quantify the amount of minocycline within each sample. The total concentration of minocycline within each cell was calculated by normalizing to the number of cells within each corresponding culture.

[3] = test system: human HepG2 cells; experiment: MTT cell viability (cytotoxicity) assay
Method: To distinguish putatively non-toxic from human cytotoxic compounds, conventional 3-(4,5-dimethylthiazol-2yl)-2,5-diphenyltetrazolium bromide (MTT) cell viability assays (American Type Culture Collection, Manassas, Va.) were performed for each compound of interest at 1× and 4× their MEC. Briefly, human HepG2 cells were grown to approximately 1×10^6 cells per well in Dulbecco's Modified Eagle Media supplemented with 10% fetal bovine serum (Invitrogen, Carlsbad, Calif.) then treated with 1× or 4× the MEC of the indicated […] Cell viability was measured following the addition of the tetrazolium salt (MTT) as per the manufacturer's recommendations; cells challenged with 50 ug ml^−1 Mitomycin C (Sigma Aldrich) and mock-treated cells served as positive and negative controls, respectively.

[4] = test system: A. baumannii strain 98-37-09; experiment: Potentiation of ciprofloxacin toward serum grown A. baumannii; assay type: cell-based, Acinetobacter baumannii; details: 100% human serum, 0.125 μg ml^−1 ciprofloxacin, 1× or 2× MEC, 48 hour, growth inhibition
Source text: As a means to further prioritize non-toxic compounds of interest based on their therapeutic promise, it was considered that broad spectrum antimicrobial efflux pump inhibitors may be more clinically valuable than narrow-spectrum agents that only potentiate the activity of a limited number of antibiotics or that display activity toward a single bacterial species. […] To do so, 1×10^5 A. baumannii strain 98-37-09 were inoculated into individual wells of microtiter plates containing 100% human serum supplemented with 0.125 μg ml^−1 ciprofloxacin and 0, 1×, or 2× the compound's MEC, as defined by the lowest concentration needed to potentiated minocycline's antimicrobial effects (above). Plates were incubated for 48 hour at which point each compound's ability to potentiate ciprofloxacin was measured, as growth inhibition.

[5] = test system: A. baumannii; experiment: Antibiotic susceptibility assay in LB medium or 100% human serum; assay type: cell-based, Acinetobacter baumannii
Method: The antibiotic susceptibility of A. baumannii and Pseudomonas aeruginosa grown in either LB medium or 100% human serum was measured according to the method described below. Briefly, the indicated bacterial species/strain was grown overnight in LB medium, diluted into fresh medium (1:100 dilution) and grown to mid-exponential phase (OD600nm=0.4 to 0.5) at 37° C. with aeration. […] To quantify the antimicrobial effects of each antibiotic toward bacteria grown in LB or serum, well constitutes were serially diluted in PBS and plated on LB agar to enumerate the CFU mL^−1.

## C/C(=N\NC(=O)c1ccccc1F)c1ccccc1O [ST033061]
[1]
  Log-reduction Colony Forming Units (ml^−1): 2.18 log
  MEC: 2 µg/mL
[2]
  Minocylcine Per Cell (femtomoles cell^−1): 1.96E−04 femtomoles cell^−1
[3]
  % Viability: 77.58%
[4]
  Potentiate Ciprofloxacin A. baumannii: No

## N#Cc1c(/N=C/c2ccc([N+](=O)[O-])o2)sc2c1CCCC2 [ST033065]
[1]
  Log-reduction Colony Forming Units (ml^−1): 2.44 log
  MEC: 2 µg/mL
[2]
  Minocylcine Per Cell (femtomoles cell^−1): 2.06E−05 femtomoles cell^−1
[3]
  % Viability: 75.6%
[4]
  Potentiate Ciprofloxacin A. baumannii: No

## O=C(N/N=C/c1ccc2c(c1)OCO2)c1ccccc1O [ST033341]
[1]
  Log-reduction Colony Forming Units (ml^−1): 2.42 log
  MEC: 2 µg/mL
[2]
  Minocylcine Per Cell (femtomoles cell^−1): 3.39E−05 femtomoles cell^−1
[3]
  % Viability: 75.88%
[4]
  Potentiate Ciprofloxacin A. baumannii: No

## Cc1cccc(N(CC(=O)Nc2ccc(Cc3ccncc3)cc2)S(=O)(=O)c2ccccc2)c1 [ST034014]
[1]
  Log-reduction Colony Forming Units (ml^−1): 2.37 log
  MEC: 2 µg/mL
[2]
  Minocylcine Per Cell (femtomoles cell^−1): 5.46E−04 femtomoles cell^−1
[3]
  % Viability: 84.27%
[4]
  Potentiate Ciprofloxacin A. baumannii: No

## COc1ccc(C2N(Cc3ccccc3)CCN2Cc2ccccc2)cc1 [ST036291]
[1]
  Log-reduction Colony Forming Units (ml^−1): 3.31 log
  MEC: 2 µg/mL
[2]
  Minocylcine Per Cell (femtomoles cell^−1): 5.5E−05 femtomoles cell^−1
[3]
  % Viability: 75.74%
[4]
  Potentiate Ciprofloxacin A. baumannii: No

## COC(=O)CCC(=O)Nc1ccc(S(N)(=O)=O)cc1 [ST040289]
[1]
  Log-reduction Colony Forming Units (ml^−1): 4.32 log
  MEC: 4 µg/mL
[2]
  Minocylcine Per Cell (femtomoles cell^−1): 8.38E−04 femtomoles cell^−1
[3]
  % Viability: 78.8%
[4]
  Potentiate Ciprofloxacin A. baumannii: No

## Cc1ccc(C2N(Cc3ccccc3)CCCN2Cc2ccccc2)o1 [ST048001]
[1]
  Log-reduction Colony Forming Units (ml^−1): 7.06 log
  MEC: 32 µg/mL
[2]
  Minocylcine Per Cell (femtomoles cell^−1): 1.99E−04 femtomoles cell^−1
[3]
  % Viability: 82.72%
[4]
  Potentiate Ciprofloxacin A. baumannii: No

## COc1ccc2c(c1)CCC(C)N2S(=O)(=O)c1ccc(C2CNC(=O)C2)cc1 (stereo not drawn) [ST058899]
[1]
  Log-reduction Colony Forming Units (ml^−1): 6.21 log
  MEC: 64 µg/mL
[2]
  Minocylcine Per Cell (femtomoles cell^−1): 1.08E−04 femtomoles cell^−1
[3]
  % Viability: 80.69%
[4]
  Potentiate Ciprofloxacin A. baumannii: No

## Nc1ccc(S(=O)(=O)Nc2ncccn2)cc1 [ST059447]
[1]
  Log-reduction Colony Forming Units (ml^−1): 5.74 log
  MEC: 4 µg/mL
[2]
  Minocylcine Per Cell (femtomoles cell^−1): 4.52E−05 femtomoles cell^−1
[3]
  % Viability: 76.78%
[4]
  Potentiate Ciprofloxacin A. baumannii: No

## O=C1c2ccccc2C(=O)N1CCN1CCNCC1 [ST059581]
[1]
  Log-reduction Colony Forming Units (ml^−1): 6.12 log
  MEC: 32 µg/mL
[2]
  Minocylcine Per Cell (femtomoles cell^−1): 5.64E−05 femtomoles cell^−1
[3]
  % Viability: 84.56%
[4]
  Potentiate Ciprofloxacin A. baumannii: No

## COc1cc(C(=O)Nc2ccccc2C(=O)NCC2CCCO2)cc(OC)c1OC (stereo not drawn) [ST060053]
[1]
  Log-reduction Colony Forming Units (ml^−1): 4.94 log
  MEC: 4 µg/mL
[2]
  Minocylcine Per Cell (femtomoles cell^−1): 1.78E−04 femtomoles cell^−1
[3]
  % Viability: 76.11%
[4]
  Potentiate Ciprofloxacin A. baumannii: No

## COC(=O)c1ccc(COc2ccc(-c3nnn[nH]3)cc2)cc1 [ST060272]
[1]
  Log-reduction Colony Forming Units (ml^−1): 6.90 log
  MEC: 32 µg/mL
[2]
  Minocylcine Per Cell (femtomoles cell^−1): 3.67E−07 femtomoles cell^−1
[3]
  % Viability: 85.35%
[4]
  Potentiate Ciprofloxacin A. baumannii: No

## O=C(O)c1cn(C2CC2)c2cc(N3CCNCC3)c(F)cc2c1=O [ciprofloxacin]
[5]; strain 98-37-09, ciprofloxacin ≤1 μg ml^−1
  susceptibility of serum grown versus LB grown cells: significantly (P<0.001) less susceptible

## COC(=O)[C@H]1[C@H]2C[C@@H]3c4[nH]c5cc(OC)ccc5c4CCN3C[C@H]2C[C@@H](OC(=O)c2cc(OC)c(OC)c(OC)c2)[C@@H]1OC [reserpine]
[5]; strain 01-12-05, addition of efflux pump inhibitor
  restoration of tigecycline susceptibility in serum: partially restored
[5]; strain 98-37-09, serum supplemented with efflux pump inhibitor
  restoration of ciprofloxacin susceptibility in serum: Ciprofloxacin susceptibility could be restored

## CN(C)[C@@H]1C(O)=C(C(N)=O)C(=O)[C@@]2(O)C(O)=C3C(=O)c4c(O)cccc4[C@@](C)(O)[C@H]3C[C@@H]12 [tetracycline]
[5]; 4-16 μg ml^−1 tetracycline, LB
  cell viability, LB grown: < 1×10^1 colony forming units

## CN(C)c1cc(NC(=O)CNC(C)(C)C)c(O)c2c1C[C@H]1C[C@H]3[C@H](N(C)C)C(O)=C(C(N)=O)C(=O)[C@@]3(O)C(O)=C1C2=O [tigecycline]
[5]; strain 01-12-05, LB medium
  concentration with clear antimicrobial activity: ≥ 1 µg/mL
[5]; strain 01-12-05, human serum
  susceptibility during growth in serum: highly-resistant
